Measurements reported in PubChem BioAssay (NCI).
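The compound was tested at five concentrations on cells cultured in 96-well plates, with a 48-hour exposure period. At the TGI there is no net growth.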

Key:
Assay in all cases: growth of human tumour cells (NCI), 48 h
U251 CNS = tested on: U251 CNS
SNB-75 CNS = tested on: SNB-75 CNS
OVCAR-4 ovarian = tested on: OVCAR-4 ovarian
SR leukemia = tested on: SR leukemia
SF-539 CNS = tested on: SF-539 CNS
TK-10 renal = tested on: TK-10 renal
MOLT-4 leukemia = tested on: MOLT-4 leukemia
HL-60(TB) leukemia = tested on: HL-60(TB) leukemia
RPMI-8226 leukemia = tested on: RPMI-8226 leukemia
COLO 205 colon = tested on: COLO 205 colon
HCT-116 colon = tested on: HCT-116 colon
SK-OV-3 ovarian = tested on: SK-OV-3 ovarian
NCI/ADR-RES ovarian = tested on: NCI/ADR-RES ovarian
SK-MEL-5 melanoma = tested on: SK-MEL-5 melanoma
CCRF-CEM leukemia = tested on: CCRF-CEM leukemia
KM12 colon = tested on: KM12 colon
OVCAR-3 ovarian = tested on: OVCAR-3 ovarian
OVCAR-5 ovarian = tested on: OVCAR-5 ovarian
NCI-H226 lung = tested on: NCI-H226 lung
A498 renal = tested on: A498 renal

Compound | TGI (U251 CNS) | TGI (SNB-75 CNS) | TGI (OVCAR-4 ovarian) | TGI (SR leukemia) | TGI (SF-539 CNS) | TGI (TK-10 renal) | TGI (MOLT-4 leukemia) | TGI (HL-60(TB) leukemia) | TGI (RPMI-8226 leukemia) | TGI (COLO 205 colon) | TGI (HCT-116 colon) | TGI (SK-OV-3 ovarian) | TGI (NCI/ADR-RES ovarian) | TGI (SK-MEL-5 melanoma) | TGI (CCRF-CEM leukemia) | TGI (KM12 colon) | TGI (OVCAR-3 ovarian) | TGI (OVCAR-5 ovarian) | TGI (NCI-H226 lung) | TGI (A498 renal)
NC(CCCCCCCCCCP(=O)(O)O)C(=O)O (centres undefined) | > 100 µM | > 100 µM | > 100 µM | > 100 µM | > 100 µM | > 100 µM | > 100 µM | > 100 µM | > 100 µM | > 100 µM | > 100 µM | > 100 µM | > 100 µM | > 100 µM | > 100 µM | > 100 µM | > 100 µM | > 100 µM | – | –
NC(N)=Nc1ccc(-c2ccc(N=C(N)N)cc2)cc1 | > 100 µM | 86.1 µM | > 100 µM | > 100 µM | 74.7 µM | 36.5 µM | > 100 µM | > 100 µM | 66.3 µM | 47 µM | > 100 µM | > 100 µM | > 100 µM | 54.1 µM | > 95.7 µM | > 100 µM | > 100 µM | 81.3 µM | 65.4 µM | > 100 µM
O=C1N(Cl)C(=O)C(c2ccc(Cl)cc2)(c2ccc(Cl)cc2)N1Cl | > 100 µM | > 100 µM | > 100 µM | > 100 µM | > 100 µM | > 100 µM | > 100 µM | > 100 µM | > 100 µM | > 100 µM | > 100 µM | > 100 µM | – | > 100 µM | 60.9 µM | > 100 µM | > 100 µM | – | > 100 µM | > 100 µM
N/C(=N\N=C/c1ccc(O)c(O)c1O)NO | > 83.6 µM | > 46.5 µM | 25.5 µM | – | > 100 µM | – | > 66.6 µM | 41.4 µM | > 100 µM | 17.6 µM | > 59.6 µM | > 100 µM | 40.3 µM | 45.1 µM | > 58.1 µM | 72.5 µM | 51 µM | > 73.6 µM | > 77 µM | > 100 µM
